Source: patent US9994587B2, “HIV protease inhibitors” (priority 2014, dated 2018)

Biological target: T1, wildtype HIV-1 protease (Human immunodeficiency virus type 1 group M subtype B, UniProt P04585)
T1 construct: preincubated with the HIV-1 protease (wild type) enzyme in assay buffer; made in house; host or cells: Escherichia coli
Assay: Assay for inhibition of microbial expressed HIV protease (Pepcleav)
Type: biochemical
Details: wild type HIV-1 protease 20 pM, peptide substrate 400 micromolar, pH 5.5; mean of at least two independent experiments
Description: Assay for Inhibition of Microbial Expressed HIV Protease (“Pepcleav”)
Studies of the inhibition of the wildtype HIV-1 protease (which was expressed in Escherichia coli) were carried out with a peptide substrate [Val-Ser-Gln-Asn-(βnaphtyl)Ala-Pro-Ile-Val (SEQ ID NO 1)]. The inhibitor was first preincubated with the HIV-1 protease (wild type) enzyme in assay buffer (50 mM sodium acetate, pH 5.5, 100 mM NaCl, and 0.1% BSA) for 30 minutes at room temperature. Substrate was added to 400 micromolar in a total volume of 20 microliters containing 20 picomolar HIV-1 protease (final) and the reaction is incubated for 1 hour at 30° C. The reaction was quenched with the addition of formic acid and indinavir to 0.012% and 150 nM final concentrations, respectively. Product formation was determined after separation of product and substrate on a Zorbax Eclipse XDB-C18 column connected to an API 4000 mass spectrometer (Applied Biosystems) with multiple reaction monitoring (transitions were 644.5/428.9 and 615.4/422.2 (M1/M3) for product and indinavir respectively). The extent of inhibition of the reaction was determined from the peak area of the products.

First: COC(=O)N[C@H](C(=O)Nc1ccccc1CC[C@@H]1CNC[C@@H](CSc2ccc(Cl)cc2Cl)O1)C(c1ccccc1)c1ccccc1 [Example 25, methyl N-[(1S)-1-benzhydryl-2-[[2-[2-[(2R,6S)-6-[(2,4-dichlorophenyl)sulfanylmethyl]morpholin-2-yl]ethyl]phenyl]amino]-2-oxo-ethyl]carbamate]
Second: COC(=O)N[C@H](C(=O)Nc1ccccc1CC[C@@H]1CNC[C@@H](CSc2ccc(Br)cc2F)O1)C(c1ccccc1)c1ccccc1 [Example 27, methyl N-[(1S)-1-benzhydryl-2-[[2-[2-[(2R,6S)-6-[(4-bromo-2-fluoro-phenyl)sulfanylmethyl]morpholin-2-yl]ethyl]phenyl]amino]-2-oxo-ethyl]carbamate]
The IC50 of the first is 2.8-fold higher: 1.5 nM for the first, 0.53 nM for the second. The second is the more potent here.

Compared with `COC(=O)N[C@H](C(=O)Nc1ccccc1CC[C@@H]1CNC[C@@H](CSc2cccc(S(C)(=O)=O)c2)O1)C(c1ccccc1)c1ccccc1` [Example 23, methyl N-[(1S)-1-benzhydryl-2-[[2-[2-[(2R,6S)-6-[(3-methylsulfonylphenyl)sulfanyl-methyl]morpholin-2-yl]ethyl]phenyl]amino]-2-oxo-ethyl]carbamate], `COC(=O)N[C@H](C(=O)Nc1ccccc1CC[C@@H]1CNC[C@@H](CSc2cccc(Cl)c2)O1)C(c1ccccc1)c1ccccc1` [Example 18, methyl N-[(1S)-1-benzhydryl-2-[[2-[2-[(2R,6S)-6-[(3-chlorophenyl)sulfanylmethyl]morpholin-2-yl]ethyl]phenyl]amino]-2-oxo-ethyl]carbamate] is 2.4-fold higher in IC50: 0.8 nM for the first, 1.9 nM for the second.

Compared with `COC(=O)N[C@H](C(=O)Nc1ccccc1CC[C@H]1CNC[C@@H](CS(=O)(=O)c2ccc(Cl)cc2)O1)C(c1ccccc1)c1ccccc1` [Example 109, N-(2-{2-[(2S,6S)-6-{[(4-chlorophenyl)sulfonyl]methyl}morpholin-2-yl]ethyl}phenyl)-Nα-(methoxycarbonyl)-β-phenyl-L-phenylalaninamide], `COC(=O)N[C@H](C(=O)Nc1ccccc1CC[C@@H]1CNC[C@@H](C[S+]([O-])c2ccc(Cl)cc2)O1)C(c1ccccc1)c1ccccc1` (stereo partly drawn) [Example 57, methyl N-[(1S)-1-benzhydryl-2-[[2-[2-[(2R,6S)-6-[(4-chlorophenyl)sulfinylmethyl]morpholin-2-yl]ethyl]phenyl]amino]-2-oxo-ethyl]carbamate] is 2.8-fold lower in IC50: 770 nM for the first, 280 nM for the second.

Going from `COC(=O)N[C@H](C(=O)Nc1ccccc1CC[C@@H]1CNC[C@@H](COc2cccc3c2CCC3)O1)C(c1ccccc1)c1ccccc1` [Example 31, methyl N-[(1S)-1-benzhydryl-2-[[2-[2-[(2R,6S)-6-(indan-4-yloxymethyl)morpholin-2-yl]ethyl]phenyl]amino]-2-oxo-ethyl]carbamate] to `COC(=O)N[C@H](C(=O)Nc1ccccc1CC[C@@H]1CNC[C@@H](COc2cccc3cc[nH]c23)O1)C(c1ccccc1)c1ccccc1` [Example 38, N-[2-(2-{(2R,6S)-6-[(1H-indol-7-yloxy)methyl]morpholin-2-yl}ethyl)phenyl]-Na-(methoxycarbonyl)-b-phenyl-L-phenylalaninamide], the IC50 rises from 36 nM to 240 nM (6.7-fold). The first is the more potent here.

Going from `COC(=O)N[C@H](C(=O)Nc1ccccc1CC[C@@H]1CNC[C@@H](/C=C/c2ccc(Cl)cc2)O1)C(c1ccccc1)c1ccccc1` [Example 60, N-[2-(2-{(2R,6R)-6-[(E)-2-(4-chlorophenyl)ethenyl]morpholin-2-yl}ethyl)phenyl]-Nα-(methoxycarbonyl)-β-phenyl-L-phenylalaniamide] to `COC(=O)N[C@H](C(=O)Nc1ccccc1CCC1CNC[C@@H](COc2ccc(Cl)cc2)O1)C(c1ccccc1)c1ccccc1` (stereo partly drawn) [Example 5, methyl N-[(1S)-1-benzhydryl-2-[[2-[2-[(6S)-6-[(4-chlorophenoxy)methyl]morpholin-2-yl]ethyl]phenyl]amino]-2-oxo-ethyl]carbamate], the IC50 rises from 19 nM to 58 nM (3.1-fold). The first is the more potent here.

First: COC(=O)N[C@H](C(=O)NCCCC1CNC[C@@H](CCc2ccc(Cl)cc2)O1)C(c1ccccc1)c1ccccc1 (stereo partly drawn) [Example 107, N-(3-{(6R)-6-[2-(4-chlorophenyl)ethyl]morpholin-2-yl}propyl)-Nα-(methoxycarbonyl)-β-phenyl-L-phenylalaninamide]
Second: COC(=O)N[C@H](C(=O)Nc1ccccc1OC[C@@H]1CNC[C@@H](CSc2ccc(Cl)cc2)O1)C(c1ccccc1)c1ccccc1 [Example 58, methyl N-[(1S)-1-benzhydryl-2-[[2-[[(2S,6S)-6-[(4-chlorophenyl)sulfanylmethyl]morpholin-2-yl]methoxy]phenyl]amino]-2-oxo-ethyl]carbamate]
The IC50 of the first is 120-fold higher: 1000 nM for the first, 8.1 nM for the second.

Compared with `N[C@H](C(=O)Nc1cncc(F)c1CC[C@@H]1CNCC2(CCCCC2)O1)C(c1ccccc1)c1ccccc1` [Example 133, N-(5-fluoro-4-{2-[(2R)-1-oxa-4-azaspiro[5.5]undec-2-yl]ethyl}pyridin-3-yl)-β-phenyl-L-phenylalaninamide], `N[C@H](C(=O)Nc1c(CC[C@@H]2CNC[C@@H](CSc3ccc(Cl)cc3)O2)cc[nH]c1=O)C(c1ccccc1)c1ccccc1` [Example 88, N-(4-{2-[(2R,6S)-6-{[(4-chlorophenyl)sulfanyl]methyl}morpholin-2-yl]ethyl}-2-oxo-1,2-dihydropyridin-3-yl)-β-phenyl-L-phenylalaninamide] is 7200-fold lower in IC50: 290 nM for the first, 0.04 nM for the second. The second is the more potent here.

First: COC(=O)N[C@H](C(=O)Nc1ccccc1CC[C@@H]1CNC[C@@H](CSc2nnc(Cc3csc(C)n3)o2)O1)C(c1ccccc1)c1ccccc1 [Example 32, methyl N-[(1S)-1-benzhydryl-2-[[2-[2-[(2R,6S)-6-[[5-[(2-methylthiazol-4-yl)methyl]-1,3,4-oxadiazol-2-yl]sulfanylmethyl]morpholin-2-yl]ethyl]phenyl]amino]-2-oxo-ethyl]carbamate]
Second: COC(=O)N[C@H](C(=O)Nc1ccccc1CC[C@@H]1CNC[C@@H](CSc2cccc3ncccc23)O1)C(c1ccccc1)c1ccccc1 [Example 42, methyl [(2S)-1-oxo-3,3-diphenyl-1-{[2-(2-{(2R,6S)-6-[(quinolin-5-ylsulfanyl)methyl]morpholin-2-yl}ethyl)phenyl]amino}propan-2-yl]carbamate]
The IC50 of the first is 8.5-fold higher: 8 nM for the first, 0.94 nM for the second. The second is the more potent here.

Going from `COC(=O)N[C@H](C(=O)Nc1cncnc1CC[C@@H]1CNC[C@@H](COc2ccc(C#N)cc2)O1)C(c1ccccc1)c1ccccc1` [Example 79, N-[4-(2-{(2R,6S)-6-[(4-cyanophenoxy)methyl]morpholin-2-yl}ethyl)pyrimidin-5-yl]-Nα-(methoxycarbonyl)-β-phenyl-L-phenylalaninamide] to `COC(=O)N[C@H](C(=O)Nc1ccc(F)cc1CC[C@@H]1CNC[C@@H](COc2cccc(C#N)c2)O1)C(c1ccccc1)c1ccccc1` [Example 74, N-[2-(2-{(2R,6S)-6-[(3-cyanophenoxy)methyl]morpholin-2-yl}ethyl)-4-fluorophenyl]-Nα-(methoxycarbonyl)-β-phenyl-L-phenylalaninamide], the IC50 falls from 120 nM to 39 nM (3.1-fold).

`COC(=O)N[C@H](C(=O)Nc1ccccc1CC[C@@H]1CNC[C@@H](COc2ccc(-c3ccncc3)cc2)O1)C(c1ccccc1)c1ccccc1` [Example 52, N-α-(methoxycarbonyl)-β-phenyl-N-(2-{2-[(2R,6S)-6-{[4-(pyridin-4-yl)phenoxy]methyl}morpholin-2-yl]ethyl}phenyl)-L-phenylalaninamide] and `COC(=O)N[C@H](C(=O)Nc1ccccc1CC[C@@H]1CNC[C@@H](COc2ccc(-n3cccn3)cc2)O1)C(c1ccccc1)c1ccccc1` [Example 43, N-α-(methoxycarbonyl)-β-phenyl-N-(2-{2-[(2R,6S)-6-{[4-(1H-pyrazol-1-yl)phenoxy]methyl}morpholin-2-yl]ethyl}phenyl)-L-phenylalaninamide] are within 1.5-fold of each other in IC50: 4 nM for the first, 4.7 nM for the second.

Compared with `COC(=O)N[C@H](C(=O)Nc1ccccc1CC[C@@H]1CNC[C@@H](c2nc3cc(C)c(C)cc3[nH]2)O1)C(c1ccccc1)c1ccccc1` [Example 112, N-(2-{2-[(2R,6S)-6-(5,6-dimethyl-1H-benzimidazol-2-yl)morpholin-2-yl]ethyl}phenyl)-Nα-(methoxycarbonyl)-β-phenyl-L-phenylalaninamide], `COC(=O)N[C@H](C(=O)Nc1ccccc1CC[C@@H]1CNC[C@@H](COc2ccc(C#N)cc2C)O1)C(c1ccccc1)c1ccccc1` [Example 29, methyl N-[(1S)-1-benzhydryl-2-[[2-[2-[(2R,6S)-6-[(4-cyano-2-methyl-phenoxy)methyl]morpholin-2-yl]ethyl]phenyl]amino]-2-oxo-ethyl]carbamate] is 50-fold lower in IC50: 850 nM for the first, 17 nM for the second. The second is the more potent here.

First: COC(=O)N[C@H](C(=O)Nc1ccccc1CC[C@@H]1CNC[C@@H](COc2ccc(S(N)(=O)=O)cc2)O1)C(c1ccccc1)c1ccccc1 [Example 55, N-α-(methoxycarbonyl)-β-phenyl-N-[2-(2-{(2R,6S)-6-[(4-sulfamoylphenoxy)methyl]morpholin-2-yl}ethyl)phenyl]-L-phenylalaninamide]
Second: COC(=O)N[C@H](C(=O)Nc1ccccc1CC[C@@H]1CNC[C@@H](COc2cccc3[nH]ccc23)O1)C(c1ccccc1)c1ccccc1 [Example 30, methyl N-[(1S)-1-benzhydryl-2-[[2-[2-[(2R,6S)-6-(1H-indol-4-yloxymethyl)morpholin-2-yl]ethyl]phenyl]amino]-2-oxo-ethyl]carbamate]
The IC50 of the first is 11-fold lower: 12 nM for the first, 130 nM for the second.
